Structures can show the parent of a compound that is named as a salt. Where two headings read alike, the source gives them in different places.
Columns and labels:
Format in all cases: cell-based
SF-nanobacteria = test: Chemical disinfection of SF-nanobacteria; design: key to Resistance of SF-nanobacteria to chemical disinfectants (survival) / partial or total detachment on exposure: +++: No effect; ++: Reduced survival; +: Markedly reduced survival; - : No survival; * = partial or total detachment on exposure; conditions: for Resistance of SF-nanobacteria to chemical disinfectants (survival): survival after subculture compared to diluent only; for effect of chemical disinfection on SF-nanobacteria (in words): exposure at room temperature, then subculture
Excerpt: The cultures were exposed to the disinfectants after removal of the culture medium. For the autoclaving, UV, microwave, and drying treatments, the medium was removed and an equal amount of PBS used instead. For the heat treatments, the SF-nanobacteria were harvested by scraping the culture vessel followed by centrifugation of the medium. The obtained pellet was suspended in PBS and used in the test. After treatments the SF-nanobacteria were subcultured in DMEM medium and the growth followed by light microscopy to see the adherence and typical mineralization.
The concentrations of the chemicals used were those commonly used for disinfection or as instructed by the manufacturer. The chemicals included 70% ethanol, 2% glutaraldehyde, 4% formaldehyde, 0.5% hypochlorite, 3% hydrogen peroxide, 1M hydrochloric acid (HCl), 1M sodium hydroxide (NaOH) , 1% sodium dodecyl sulfate (SDS), 1% Tween 80, 1 % Triton X-100, 3M guanidium-hydrochloride, 3M urea, 1% Virkon® (Antec International Ltd., Suffolk, England; 100% product contains 50% potassium persulfate, 5% sulfaminoic acid), 1.5% Erifenol® (Orion OY, Finland; 100% product contains <5% NaOH, <5% o-benzyl-p-chlorophenol, 5-15% p-chloro-m-cresol), 1% Klorilli® (Orion OY, Finland; 100% product contains sodium metasilicate, sodium N-chloro-p-toluenesulfonamide-3-hydrate and 20,000 ppm active chlorine), and 3% Buraton® (Schülke & Mayr, Germany; 100% product contains 4.5% formaldehyde, 6.8% glyoxal, 1.5% glyoxylic acid, 6% dimethylaurylbenzyl-ammonium chloride). The dilutions to be used were freshly prepared on the day of exposure in sterile distilled water. As a positive control, only diluent was used. Negative control contained only culture medium.
The SF-nanobacteria were exposed to the chemicals for 10 and 30 minutes at room temperature after removal of the culture medium. After exposure, the disinfectant solution was removed and fresh medium added (with a neutralization step in the case of HCl and NaOH). If any significant deattachment occurred, nanobacteria were recovered by centrifugation, and subcultured. The exposed serum-free cultures were passaged 1:10 after 48 hours and the growth was followed by light microscopy for three weeks.

nanobacteria [1] = test: Antibiotic sensitivity test by Minimal Inhibition Concentration (MIC), 96-well plates, absorbance at 650 nm; conditions: for antinanobacterial effect in the in vitro test (in words): in vitro MIC test; for IC90: 90% inhibition, read-out: MIC 90
Method: Antibiotic sensitivity tests were carried out by measuring Minimal Inhibition Concentration (MIC), a common practice in clinical microbiology.
The tests were performed in 96-well plates. DMEM (commercial cell culture medium) containing 10% gamma-irradiated fetal bovine serum (FBS)(dose about 3 Mrads; this treatment inactivates nanobacteria in the serum so that the basic medium is sterile) was used as the basic culture medium. These components are commercially available, e.g., from Gibco. The antibiotic stock solutions were sterile filtered through 0.2 micrometer filters. The stock solutions were then serially diluted (into the basal culture medium) to provide a final starting concentration of 0.5 mg/ml and 1:2 dilutions therefrom, unless otherwise specified. For each antibiotic three parallel tests were performed using all the antibiotic dilutions and, additionally, positive and negative control experiments. […] 100 µl of dilutions of the nanobacteria inoculum were added to all wells except the negative controls. The plates were incubated at mammalian cell culture conditions (37° Celsius, 5% carbon dioxide, 95% humid air). The absorbance values at 650 nm were recorded by using an ELISA reader at the start, and at 4, 8, 12, 14 days. […] Calculations were based on absorbance curves where absorbance was plotted against concentration of the antibiotic.

nanobacteria [2] = test: Nanobacterial growth and biofilm formation on stents with metal ions in the culture medium; conditions: salts added to the culture medium
Excerpt: Nanobacteria also absorb some heavy metals. Nanobacteria can be stained well with silver or copper compounds. […] Silver and copper parts or platings on surfaces, such as catheters or stents, can provide an antinanobacterial effect by preventing nanobacterial biofilm formation. In in vitro tests nanobacteria avidly formed biofilm on two different commercial stents made of a plastic type of material. This biofilm formation was prevented by the addition of silver or copper salts to the culture medium.

[3] = Exposure time 10 min, room temperature
[4] = Exposure time 30 min, room temperature
[5] = short chain organic acids tested later in culture tests, read-out: MIC50 values
[6] = light or radiation study, 288 h, read-out: MIC 50
[7] = light or radiation study, 288 h, 12 day time point, DMEM with 10% gamma-irradiated FBS

CCCCCCCCCCCCOS(=O)(=O)[O-].[Na+] [1 % SDS, sodium dodecyl sulfate] was tested, and the “Resistance of SF-nanobacteria to chemical disinfectants (survival)” value (“Resistance of SF-nanobacteria” for short) (SF-nanobacteria; [3]) was “+++” and the “Resistance of SF-nanobacteria” value (SF-nanobacteria; [4]) was “+++”.
Molecule CC(=O)O [acetic acid] has an IC50 (nanobacteria [1]; [5]) of 10000 to 50000 µM.
In the case of N=C(N)N [3M Guanidium HCl, guanidium-hydrochloride], the “Resistance of SF-nanobacteria” value (SF-nanobacteria; [4]) is reported as 0 and the “effect of chemical disinfection on SF-nanobacteria (in words)” value (from here on “effect of chemical disinfection”) (SF-nanobacteria) is reported as “deattachment”.
In the case of Cc1ncc([N+](=O)[O-])n1CCO [Metronidasole], the “MIC 50” value (nanobacteria [1]; 50% inhibition, 12 day time point, DMEM with 10% gamma-irradiated FBS) is reported as over 500 µg/mL.
Molecule O=C(N[C@H](CO)[C@H](O)c1ccc([N+](=O)[O-])cc1)C(Cl)Cl [Chloramphenicol] has an IC50 (nanobacteria [1]; [6]) of over 500 µg/mL.
Work on CCC[C@@H]1C[C@@H](C(=O)N[C@@H]([C@H]2O[C@H](SC)[C@H](O)[C@@H](O)[C@H]2O)[C@@H](C)O)N(C)C1 [Lincomycin] yielded an IC50 (nanobacteria [1]; [6]) of over 500 µg/mL.
For Vitamin D, the IC50 (nanobacteria [1]; 50% inhibition, 12 day time point, read-out: MIC 50) was over 25 µM and the “antinanobacterial effect in the in vitro test (in words)” value (“antinanobacterial effect” below) (nanobacteria [1]) was “very weak inhibitory effect”.
For COc1cc(Cc2cnc(N)nc2N)cc(OC)c1OC [Trimethoprim], the “antinanobacterial effect” value (nanobacteria [1]) was “bacteriostatic”, the IC90 (nanobacteria [1]; [7]) was 5 µg/mL and the IC50 (nanobacteria [1]; [6]) was 0.7 µg/mL.
Work on CC[C@H]1OC(=O)[C@H](C)[C@@H](O[C@H]2C[C@@](C)(OC)[C@@H](O)[C@H](C)O2)[C@H](C)[C@@H](O[C@@H]2O[C@H](C)C[C@H](N(C)C)[C@H]2O)[C@](C)(OC)C[C@@H](C)C(=O)[C@H](C)[C@@H](O)[C@]1(C)O [Clarithromycin] yielded an IC50 (nanobacteria [1]; [6]) of over 500 µg/mL.
CC(O)(P(=O)(O)O)P(=O)(O)O [Ethidronate] was tested, and the “antinanobacterial effect” value (nanobacteria [1]) was “bacteriocidic effect”, the IC90 (nanobacteria [1]; [7]) was 0.5 µg/mL and the IC50 (nanobacteria [1]; [6]) was 0.1 µg/mL.
For Nc1ccc(C(=O)O)c(O)c1 [para-aminosalicylic acid], the “MIC value compared with acetylsalicylic acid” value (nanobacteria [1]) was “identical with acetylsalicylic acid”.
In the case of CCCCCCCC/C=C\CCCCCCCC(=O)OCCOCC(OCCO)C1OCC(OCCO)C1OCCO (stereo not shown) [1 % Tween 80, Tween 80], the “Resistance of SF-nanobacteria” value (SF-nanobacteria; [3]) is reported as “+++” and the “Resistance of SF-nanobacteria” value (SF-nanobacteria; [4]) is reported as “+++”.
CC1=CC(=O)c2ccccc2C1=O [Vitamin K (Menadion), Menadion] was tested, and the “antinanobacterial effect” value (nanobacteria [1]) was “toxic to nanobacteria” and the IC50 (nanobacteria [1]; [6]) was 2 µg/mL.
For [Cu] [copper], the “biofilm formation on commercial stents” value (nanobacteria [2]) was “prevented”.
CC[C@@H](CO)NCCN[C@@H](CC)CO [Ethambutol] was tested, and the IC50 (nanobacteria [1]; [6]) was over 500 µg/mL.
hydrochloric acid [1M HCl] was tested, and the “partial or total detachment on exposure” value (SF-nanobacteria; [4]) was “*”, the “Resistance of SF-nanobacteria” value (SF-nanobacteria; [4]) was “++” and the “effect of chemical disinfection” value (SF-nanobacteria; listed as Hydrochloric acid) was “dissolved the apatite layer”. For the same molecule, the “effect of chemical disinfection” value (SF-nanobacteria; listed as hydrochloric acid) was “could not kill nanobacteria”.
Work on O=C1O[C@H]([C@@H](O)CO)C(O)=C1O [ascorbic acid] yielded an IC50 (nanobacteria [1]; [5]) of 10000 to 50000 µM.
In the case of hydrogen peroxide [3% H2O2], the “Resistance of SF-nanobacteria” value (SF-nanobacteria; [3]) is reported as “+++” and the “Resistance of SF-nanobacteria” value (SF-nanobacteria; [4]) is reported as “+++”.
CC1(C)S[C@@H]2[C@H](NC(=O)[C@H](N)c3ccccc3)C(=O)N2[C@H]1C(=O)O [Ampicillin] was tested, and the “antinanobacterial effect” value (nanobacteria [1]) was “weak bacteriostatic effect” and the IC50 (nanobacteria [1]; [6]) was 500 µg/mL.
With O=C(O)CC(O)(CC(=O)O)C(=O)O [Citrate] the IC90 (nanobacteria [1]; 288 h, 12 day time point) was 1000 µM, the IC50 (nanobacteria [1]; 288 h, read-out: MIC 50) was 200 µM and the “antinanobacterial effect” value (nanobacteria [1]) was “effective antinanobacterial agent”.

Source: patent publication EP1094711B1, “METHODS FOR ERADICATION OF NANOBACTERIA” (Nanobac Oy, priority 1998, dated 2000)
